Test results: the NIST ThermoML archive (doi:10.1016/j.jct.2017.05.001)

Assay: wn = mass fraction of the nth substance listed
Details: Liquid; for mass density: Vibrating tube method

OCCN(CCO)CCO [triethanolamine] + O
viscosity [mPa·s]
Details | w1 = 0.0992 | w1 = 0.1 | w1 = 0.2 | w1 = 0.2991 | w1 = 0.3 | w1 = 0.4
293.15 K, 100 kPa, Concentric cylinders viscometry | – | 1.41 | 2.066 | – | 3.197 | 5.34
293.15 K, 100 kPa, Falling or rolling sphere viscometry | 1.429 | – | 2.037 | 3.208 | – | 5.317
293.15 K, 5000 kPa, Falling or rolling sphere viscometry | 1.459 | – | 2.036 | 3.212 | – | 5.311
293.15 K, 10000 kPa, Falling or rolling sphere viscometry | 1.455 | – | 2.035 | 3.229 | – | 5.331
293.15 K, 15000 kPa, Falling or rolling sphere viscometry | 1.454 | – | 2.04 | 3.18 | – | 5.376
293.15 K, 20000 kPa, Falling or rolling sphere viscometry | 1.45 | – | 2.042 | 3.234 | – | 5.417
293.15 K, 25000 kPa, Falling or rolling sphere viscometry | 1.447 | – | 2.044 | 3.242 | – | 5.445
293.15 K, 30000 kPa, Falling or rolling sphere viscometry | 1.446 | – | 2.046 | 3.245 | – | 5.5
293.15 K, 40000 kPa, Falling or rolling sphere viscometry | 1.443 | – | 2.051 | 3.288 | – | 5.549
293.15 K, 60000 kPa, Falling or rolling sphere viscometry | 1.44 | – | 2.064 | 3.325 | – | 5.675
293.15 K, 80000 kPa, Falling or rolling sphere viscometry | 1.447 | – | 2.08 | 3.373 | – | 5.792
293.15 K, 100000 kPa, Falling or rolling sphere viscometry | 1.448 | – | 2.098 | 3.446 | – | 5.987
313.15 K, 100 kPa, Concentric cylinders viscometry | – | 0.881 | 1.244 | – | 1.786 | 2.756
313.15 K, 100 kPa, Falling or rolling sphere viscometry | 0.909 | – | 1.203 | 1.786 | – | 2.788
313.15 K, 5000 kPa, Falling or rolling sphere viscometry | 0.8937 | – | 1.208 | 1.797 | – | 2.794
313.15 K, 10000 kPa, Falling or rolling sphere viscometry | 0.8956 | – | 1.21 | 1.808 | – | 2.797
313.15 K, 15000 kPa, Falling or rolling sphere viscometry | 0.8964 | – | 1.214 | 1.818 | – | 2.828
313.15 K, 20000 kPa, Falling or rolling sphere viscometry | 0.8965 | – | 1.22 | 1.832 | – | 2.852
313.15 K, 25000 kPa, Falling or rolling sphere viscometry | 0.8977 | – | 1.225 | 1.835 | – | 2.866

mass density [kg/m3]
Details | w1 = 0.0992 | w1 = 0.2 | w1 = 0.2991 | w1 = 0.4
293.15 K, 100 kPa | 1013.3 | 1029.5 | 1046.1 | 1065.2
293.15 K, 500 kPa | 1013.5 | 1029.5 | 1046.2 | 1065.3
293.15 K, 1000 kPa | 1013.7 | 1029.7 | 1046.4 | 1065.4
293.15 K, 2000 kPa | 1014.2 | 1030.2 | 1046.8 | 1065.8
293.15 K, 5000 kPa | 1015.5 | 1031.4 | 1047.9 | 1066.9
293.15 K, 10000 kPa | 1017.6 | 1033.4 | 1049.8 | 1068.7
293.15 K, 15000 kPa | 1019.6 | 1035.4 | 1051.7 | 1070.5
293.15 K, 20000 kPa | 1021.8 | 1037.4 | 1053.7 | 1072.3
293.15 K, 30000 kPa | 1026 | 1041.4 | 1057.4 | 1075.8
293.15 K, 40000 kPa | 1030 | 1045.2 | 1061.1 | 1079.3
293.15 K, 50000 kPa | 1034 | 1049 | 1064.7 | 1082.7
293.15 K, 60000 kPa | 1037.9 | 1052.7 | 1068.3 | 1086.1
293.15 K, 70000 kPa | 1041.8 | 1056.4 | 1071.8 | 1089.4
293.15 K, 80000 kPa | 1045.5 | 1059.8 | 1075.1 | 1092.5
293.15 K, 90000 kPa | 1049.1 | 1063.4 | 1078.5 | 1095.8
293.15 K, 100000 kPa | 1052.9 | 1066.9 | 1081.8 | 1098.9
293.15 K, 110000 kPa | 1056.3 | 1070.2 | 1084.9 | 1101.8
293.15 K, 120000 kPa | 1059.8 | 1073.6 | 1088.2 | 1104.9
293.15 K, 130000 kPa | 1063.3 | 1077 | 1091.5 | 1107.9
293.15 K, 140000 kPa | 1066.5 | 1080.1 | 1094.5 | 1110.8
313.15 K, 100 kPa | 1006.9 | 1021.9 | 1037.4 | 1055.1
313.15 K, 500 kPa | 1007 | 1022.1 | 1037.5 | 1055.3
313.15 K, 1000 kPa | 1007.2 | 1022.3 | 1037.7 | 1055.4
313.15 K, 2000 kPa | 1007.6 | 1022.7 | 1038.1 | 1055.8
313.15 K, 5000 kPa | 1008.9 | 1023.9 | 1039.3 | 1056.9
313.15 K, 10000 kPa | 1010.9 | 1025.9 | 1041.2 | 1058.8
313.15 K, 15000 kPa | 1013 | 1027.8 | 1043.1 | 1060.6
313.15 K, 20000 kPa | 1015 | 1029.7 | 1045 | 1062.4
